Values after ≈ are worked out from the molar mass of the structure shown.
Legend:
[1] = tested on: Mycobacterium tuberculosis; experiment: Antimycobacterial activity against replicating Mycobacterium tuberculosis H37Rv incubated for 1 week by MABA method; assay type: functional; conditions: 168 h
RAW264.7 = experiment: Cytotoxicity against mouse RAW264.7 cells assessed as reduction in cell viability at 25 uM after 48 hrs by MTT assay relative to control; assay type: cell-based; conditions: raw264.7, 48 h
[2] = tested on: Mycobacterium tuberculosis; experiment: Antimycobacterial activity against replicating Mycobacterium tuberculosis H37Rv incubated for 1 week in presence of piperine by MABA method; assay type: functional; conditions: 168 h
[3] = tested on: Mycobacterium tuberculosis; experiment: Antimycobacterial activity against replicating Mycobacterium tuberculosis H37Rv incubated for 1 week in presence of verapamil by MABA method; assay type: functional; conditions: 168 h
[4] = tested on: Mycobacterium tuberculosis; experiment: Antibiofilm activity against Mycobacterium tuberculosis H37Rv assessed as log reduction in bacterial load at 10 ug/ml incubated for 1 week by MPN assay; assay type: functional
[5] = tested on: Mycobacterium tuberculosis; experiment: Antimycobacterial activity against Mycobacterium tuberculosis H37Rv dormant stage assessed as log reduction in bacterial load at 10 ug/ml incubated for 7 days; assay type: functional
[6] = tested on: Mycobacterium tuberculosis; experiment: Bactericidal activity against Mycobacterium tuberculosis H37Rv dormant stage up to 21 days by time kill assay; assay type: functional; conditions: 504 h
[7] = biological target: T1, Glutamate racemase (Mycobacterium tuberculosis (strain ATCC 25618 / H37Rv)) (UniProt P9WPW9); experiment: Stabilization of Mycobacterium tuberculosis glutamate racemase bound to D-glutamate assessed as change in melting temperature by sypro-orange dye-based fluorescence assay
T1 sequence (whole entry): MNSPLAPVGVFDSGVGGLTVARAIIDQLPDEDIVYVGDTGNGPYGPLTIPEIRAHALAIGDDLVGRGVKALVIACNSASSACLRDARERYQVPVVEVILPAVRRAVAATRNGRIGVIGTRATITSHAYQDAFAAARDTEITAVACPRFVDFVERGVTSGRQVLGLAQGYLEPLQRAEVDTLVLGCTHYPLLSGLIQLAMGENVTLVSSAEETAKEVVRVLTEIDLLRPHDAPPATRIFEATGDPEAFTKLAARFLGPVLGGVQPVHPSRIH

[8] = biological target: T1, Glutamate racemase (Mycobacterium tuberculosis (strain ATCC 25618 / H37Rv)); experiment: Stabilization of Mycobacterium tuberculosis glutamate racemase assessed as change in melting temperature by sypro-orange dye-based fluorescence assay
Mycobacterium marinum [9] = experiment: Antimycobacterial activity against Mycobacterium marinum ATCC BAA-535 infected in zebrafish at 5 mg/kg, po treated for 7 days by MPN assay; assay type: functional
[10] = tested on: Mycobacterium tuberculosis; experiment: Ratio of MIC for Mycobacterium tuberculosis H37Rv to MIC for Mycobacterium tuberculosis H37Rv in presence of verapamil; assay type: functional
Mycobacterium marinum [11] = experiment: Antimycobacterial activity against Mycobacterium marinum ATCC BAA-535 infected in zebrafish at 10 mg/kg, po treated for 7 days by MPN assay; assay type: functional
[12] = biological target: T1, Glutamate racemase (Mycobacterium tuberculosis (strain ATCC 25618 / H37Rv)); experiment: Stabilization of Mycobacterium tuberculosis glutamate racemase bound to D-glutamate assessed as melting temperature by sypro-orange dye-based fluorescence assay (reference value: 45.1 degreeC)
[13] = tested on: Mycobacterium tuberculosis; experiment: Bactericidal activity against Mycobacterium tuberculosis H37Rv dormant stage at 5 to 20 uM by time kill assay; assay type: functional, organism-based; conditions: TDE = time-dependent effect
[14] = biological target: T1, Glutamate racemase (Mycobacterium tuberculosis (strain ATCC 25618 / H37Rv)); experiment: Stabilization of Mycobacterium tuberculosis glutamate racemase assessed as melting temperature by sypro-orange dye-based fluorescence assay (reference value: 43.7 degreeC)

Which MIC [1] does the source give for `CC(C)c1ccc(NC(=O)Nc2cccc(-c3nc4ccccc4o3)c2)cc1` here?
The MIC was 81.2 µM (≈ 30.2 µg/mL).

And the Activity (RAW264.7)?
Its Activity is 3.52%.

Which results are given for `O=C(NCc1ccccc1)Nc1cccc(-c2nc3ccccc3o2)c1`?
MIC [1]: 72.8 µM (≈ 25 µg/mL); Activity (RAW264.7): 2.12%

What does the source list for `Cc1ccc2oc(-c3cccc(NC(=S)Nc4ccc([N+](=O)[O-])cc4)c3)nc2c1`?
MIC [1]: 61.9 µM (≈ 25 µg/mL); MIC [2]: 1.91 µM; Activity (RAW264.7): 98.1%; MIC [3]: 1.91 µM

How did the MIC [1] turn out when `COc1ccc(NC(=O)Nc2cccc(-c3nc4ccccc4o3)c2)cc1` was run?
Its MIC is 69.3 µM (≈ 24.9 µg/mL).

And the MIC [2]?
Its MIC is 69.3 µM.

What about the Activity (RAW264.7) of the same molecule?
The Activity was 17.26%.

What about the MIC [3] of the same molecule?
Its MIC is 69.3 µM.

With `CO[C@H]1/C=C/O[C@@]2(C)Oc3c(C)c(O)c4c(O)c(c(/C=N/N5CCN(C)CC5)c(O)c4c3C2=O)NC(=O)/C(C)=C\C=C\[C@H](C)[C@H](O)[C@@H](C)[C@@H](O)[C@@H](C)[C@H](OC(C)=O)[C@@H]1C` [RIFAMPIN] as the molecule, how does the MIC [1] read?
Its MIC is 0.21 µM (≈ 0.173 µg/mL).

What about the MIC [2] of the same molecule?
The MIC was 0.21 µM.

And the “log(activity)” value [4]?
The value was 1.5.

And the “log(activity)” value [5]?
Its value is 0.8.

And the MIC [3]?
Its MIC is 0.21 µM.

For `Fc1ccc(NC(=S)Nc2cccc(-c3nc4ccccc4o3)c2)cc1`, which MBC [6] is on record?
Its MBC is 27.5 µM (≈ 9.98 µg/mL).

And the MIC [1]?
The MIC was 4.37 µM (≈ 1.59 µg/mL).

And the “log(activity)” value [4]?
The value was 0.4.

What about the Activity (RAW264.7) of the same molecule?
The Activity was 96.02%.

And the “log(activity)” value [5]?
Its value is 0.2.

`O=C(Nc1ccc(Cl)cc1)Nc1cccc(-c2nc3ccccc3o2)c1` was tested. Which MIC [1] did it give?
The MIC was 68.3 µM (≈ 24.9 µg/mL).

What about the Activity (RAW264.7) of the same molecule?
Its Activity is 38.91%.

`S=C(Nc1ccc(Cl)cc1)Nc1cccc(-c2nc3ccccc3o2)c1` was tested. Which MIC [1] did it give?
Its MIC is 63.9 µM (≈ 24.3 µg/mL).

What about the Activity (RAW264.7) of the same molecule?
The Activity was 22.81%.

Which MIC [1] does the source give for `O=C(Nc1ccc([N+](=O)[O-])cc1)Nc1cccc(-c2nc3ccccc3o2)c1` here?
The MIC was 67 µM (≈ 25.1 µg/mL).

And the Activity (RAW264.7)?
The Activity was 95.11%.

Which results are given for `S=C(Nc1ccccc1)Nc1cccc(-c2nc3ccccc3o2)c1`?
MIC [1]: 19.3 µM (≈ 6.67 µg/mL); Activity (RAW264.7): 96.23%

With `O=[N+]([O-])c1ccc(NC(=S)Nc2cccc(-c3nc4ccccc4o3)c2)cc1` as the molecule, how does the MIC [1] read?
The MIC was 2.09 µM (≈ 0.816 µg/mL).

What about the “log(activity)” value [4] of the same molecule?
Its value is 0.8.

And the Activity (RAW264.7)?
Its Activity is 88.12%.

And the “log(activity)” value [5]?
Its value is 2.5.

How did the MIC [1] turn out when `O=C(Nc1ccc(F)cc1)Nc1cccc(-c2nc3ccccc3o2)c1` was run?
The MIC was 72.1 µM (≈ 25.1 µg/mL).

And the MIC [2]?
Its MIC is 72.1 µM.

And the Activity (RAW264.7)?
Its Activity is 2.98%.

What about the MIC [3] of the same molecule?
The MIC was 72.1 µM.

With `Cc1ccc2oc(-c3cccc(NC(=S)Nc4ccccc4)c3)nc2c1` as the molecule, how does the MIC [1] read?
The MIC was 69.6 µM (≈ 25 µg/mL).

And the MIC [2]?
The MIC was 8.69 µM.

And the Activity (RAW264.7)?
Its Activity is 87.32%.

And the MIC [3]?
The MIC was 8.69 µM.

How did the MIC [1] turn out when `CC[C@@H](CO)NCCN[C@@H](CC)CO` [ETHAMBUTOL] was run?
Its MIC is 7.89 µM (≈ 1.61 µg/mL).

And the MIC [2]?
The MIC was 3.82 µM.

And the MIC [3]?
The MIC was 3.82 µM.

Which MIC [1] does the source give for `Cc1ccc2oc(-c3cccc(NC(=S)NCc4ccccc4)c3)nc2c1` here?
The MIC was 2.05 µM (≈ 0.766 µg/mL).

And the Activity (RAW264.7)?
The Activity was 38.91%.

For `Cc1ccc2oc(-c3cccc(NC(=O)Nc4ccccc4)c3)nc2c1`, which MIC [1] is on record?
The MIC was 72.9 µM (≈ 25 µg/mL).

What about the MIC [2] of the same molecule?
The MIC was 72.9 µM.

What about the Activity (RAW264.7) of the same molecule?
Its Activity is 10.15%.

And the MIC [3]?
The MIC was 72.9 µM.

Which MIC [1] does the source give for `Cc1ccc(NC(=S)Nc2cccc(-c3nc4ccccc4o3)c2)cc1` here?
Its MIC is 69.5 µM (≈ 25 µg/mL).

And the Activity (RAW264.7)?
Its Activity is 99.14%.

For `Cc1ccc2oc(-c3cccc(NC(=S)Nc4ccc(F)cc4)c3)nc2c1`, which MIC [1] is on record?
The MIC was 2.16 µM (≈ 0.815 µg/mL).

And the “log(activity)” value [4]?
Its value is 0.8.

And the Activity (RAW264.7)?
Its Activity is 81.92%.

And the “log(activity)” value [5]?
The value was 2.5.

For `O=C(Nc1ccccc1)Nc1cccc(-c2nc3ccccc3o2)c1`, which MIC [1] is on record?
Its MIC is 75.1 µM (≈ 24.7 µg/mL).

What about the Activity (RAW264.7) of the same molecule?
The Activity was 48.38%.

For `Cc1ccc2oc(-c3cccc(NC(=O)Nc4ccc(F)cc4)c3)nc2c1`, which MIC [1] is on record?
The MIC was 69.3 µM (≈ 25.1 µg/mL).

What about the Activity (RAW264.7) of the same molecule?
The Activity was 3.17%.

What does the source list for `Cc1ccc2oc(-c3cccc(NC(=O)Nc4ccc(Cl)cc4)c3)nc2c1`?
MIC [1]: 66.3 µM (≈ 25.1 µg/mL); Activity (RAW264.7): 1.09%

`Cc1ccc(NC(=S)Nc2cccc(-c3nc4cc(C)ccc4o3)c2)cc1` was tested. Which MIC [1] did it give?
Its MIC is 77 µM (≈ 28.8 µg/mL).

And the MIC [2]?
Its MIC is 77 µM.

What about the Activity (RAW264.7) of the same molecule?
The Activity was 2.12%.

What about the MIC [3] of the same molecule?
Its MIC is 77 µM.

`Cc1ccc2oc(-c3cccc(NC(=O)NCc4ccccc4)c3)nc2c1` was tested. Which ΔTm [7] did it give?
The ΔTm was 2 °C.

What about the ΔTm [8] of the same molecule?
The ΔTm was 3.2 °C.

`NNC(=O)c1ccncc1` [ISONIAZID] was tested. Which MIC [1] did it give?
Its MIC is 0.78 µM (≈ 0.107 µg/mL).

And the “log(activity)” value (Mycobacterium marinum [9])?
The value was 2.5.

And the MIC [2]?
The MIC was 0.78 µM.

And the “log(activity)” value [4]?
Its value is 1.2.

And the “log(activity)” value [5]?
Its value is 1.4.

What about the MIC [3] of the same molecule?
The MIC was 0.78 µM.

For `Cc1ccc2oc(-c3cccc(NC(=S)Nc4ccc(Cl)cc4)c3)nc2c1`, which Ratio [10] is on record?
Its Ratio is 4.

What about the MBC [6] of the same molecule?
The MBC was 25.4 µM (≈ 10 µg/mL).

And the “log(activity)” value (Mycobacterium marinum [11])?
The value was 3.4.

What about the Tm [12] of the same molecule?
The Tm was 51.9 °C.

And the Activity [13]?
The Activity was “Tde”.

What about the Tm [14] of the same molecule?
Its Tm is 49.8 °C.

What about the MIC [1] of the same molecule?
Its MIC is 8.72 µM (≈ 3.43 µg/mL).

What about the MIC [2] of the same molecule?
The MIC was 2.01 µM.

And the “log(activity)” value [4]?
Its value is 2.4.

What about the Activity (RAW264.7) of the same molecule?
The Activity was 55.82%.

And the “log(activity)” value [5]?
Its value is 2.5.

What about the MIC [3] of the same molecule?
Its MIC is 2.01 µM.

Which MIC [1] does the source give for `S=C(NCc1ccccc1)Nc1cccc(-c2nc3ccccc3o2)c1` here?
The MIC was 69.2 µM (≈ 24.9 µg/mL).

And the MIC [2]?
Its MIC is 2.21 µM.

And the Activity (RAW264.7)?
Its Activity is 47.21%.

What about the MIC [3] of the same molecule?
The MIC was 2.21 µM.

What does the source list for `COc1c(N2C[C@@H]3CCCN[C@@H]3C2)c(F)cc2c(=O)c(C(=O)O)cn(C3CC3)c12` [MOXIFLOXACIN]?
log(activity) (Mycobacterium marinum [9]): 2.4; log(activity) [4]: 2; log(activity) [5]: 0.3

What does the source list for `COc1ccc(NC(=O)Nc2cccc(-c3nc4cc(C)ccc4o3)c2)cc1`?
MIC [1]: 67.9 µM (≈ 25.4 µg/mL); Activity (RAW264.7): 11.09%

What does the source list for `Cc1ccc(NC(=O)Nc2cccc(-c3nc4ccccc4o3)c2)cc1`?
MIC [1]: 36.2 µM (≈ 12.4 µg/mL); MIC [2]: 36.2 µM; Activity (RAW264.7): 1.09%; MIC [3]: 36.2 µM

Source: ChEMBL document CHEMBL4251635, “Identification and development of benzoxazole derivatives as novel bacterial glutamate racemase inhibitors” (Eur J Med Chem, 2018)
